Reference: ChEMBL document CHEMBL5291721, “A preclinical secondary pharmacology resource illuminates target-adverse drug reaction associations of marketed drugs” (Nat Commun, 2023)

How the values were obtained:
Vasopressin V1a receptor = Vasopressin V1a receptor (Homo sapiens, UniProt P37288)
[1] = biological target: T1, Alpha-1A adrenergic receptor (Homo sapiens, UniProt P35348); assay type: functional, cell-based
T1 sequence (P35348 whole entry): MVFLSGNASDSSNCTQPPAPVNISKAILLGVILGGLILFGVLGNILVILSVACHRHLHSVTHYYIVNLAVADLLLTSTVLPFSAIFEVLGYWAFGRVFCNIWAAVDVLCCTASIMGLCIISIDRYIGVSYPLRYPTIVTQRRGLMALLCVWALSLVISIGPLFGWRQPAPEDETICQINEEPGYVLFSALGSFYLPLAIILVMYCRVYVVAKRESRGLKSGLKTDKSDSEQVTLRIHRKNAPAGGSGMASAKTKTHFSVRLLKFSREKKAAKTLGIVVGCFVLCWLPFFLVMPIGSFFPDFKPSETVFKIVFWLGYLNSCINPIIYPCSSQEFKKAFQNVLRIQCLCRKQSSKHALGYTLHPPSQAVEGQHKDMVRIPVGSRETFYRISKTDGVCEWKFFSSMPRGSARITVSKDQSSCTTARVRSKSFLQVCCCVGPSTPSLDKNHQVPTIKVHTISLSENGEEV

[2] = biological target: 3',5'-cyclic-AMP phosphodiesterase 4D (Homo sapiens, UniProt Q08499); assay type: functional
[3] = biological target: T2, 5-hydroxytryptamine receptor 1A (Homo sapiens, UniProt P08908); assay type: functional, cell-based
T2 sequence (P08908 whole entry): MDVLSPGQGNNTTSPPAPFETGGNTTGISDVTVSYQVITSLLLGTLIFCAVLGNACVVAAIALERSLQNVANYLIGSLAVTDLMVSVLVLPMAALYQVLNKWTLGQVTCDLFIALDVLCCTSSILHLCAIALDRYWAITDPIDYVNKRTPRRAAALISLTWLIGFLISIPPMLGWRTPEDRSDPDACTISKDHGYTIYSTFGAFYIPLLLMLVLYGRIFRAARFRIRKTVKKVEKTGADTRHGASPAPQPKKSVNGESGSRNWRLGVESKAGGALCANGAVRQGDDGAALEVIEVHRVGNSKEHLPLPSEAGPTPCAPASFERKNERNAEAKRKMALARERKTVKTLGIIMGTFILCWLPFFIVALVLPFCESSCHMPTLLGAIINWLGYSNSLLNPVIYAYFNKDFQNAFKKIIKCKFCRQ

Motilin receptor = Motilin receptor (Homo sapiens, UniProt O43193)
[4] = biological target: T2, 5-hydroxytryptamine receptor 1A; assay type: functional, cell-based; remark: listed apart in the source
[5] = biological target: T3, Neuropeptide Y receptor type 1 (Homo sapiens, UniProt P25929)
T3 sequence (P25929 whole entry): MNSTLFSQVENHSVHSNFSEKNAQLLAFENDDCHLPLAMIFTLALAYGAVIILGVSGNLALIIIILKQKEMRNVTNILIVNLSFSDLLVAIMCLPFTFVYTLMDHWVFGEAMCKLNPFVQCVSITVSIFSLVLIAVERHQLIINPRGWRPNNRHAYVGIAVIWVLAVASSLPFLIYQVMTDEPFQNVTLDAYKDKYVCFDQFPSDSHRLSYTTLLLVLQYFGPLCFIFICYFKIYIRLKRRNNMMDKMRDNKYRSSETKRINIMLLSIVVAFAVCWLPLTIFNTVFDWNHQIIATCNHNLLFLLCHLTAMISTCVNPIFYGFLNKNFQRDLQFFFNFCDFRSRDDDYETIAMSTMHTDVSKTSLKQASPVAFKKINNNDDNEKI

Histamine H3 receptor = Histamine H3 receptor (Homo sapiens, UniProt Q9Y5N1)
[6] = biological target: Growth hormone secretagogue receptor type 1 (Homo sapiens, UniProt Q92847)
Thromboxane A2 receptor = biological target: T4, Thromboxane A2 receptor (Homo sapiens, UniProt P21731)
T4 sequence (P21731 whole entry): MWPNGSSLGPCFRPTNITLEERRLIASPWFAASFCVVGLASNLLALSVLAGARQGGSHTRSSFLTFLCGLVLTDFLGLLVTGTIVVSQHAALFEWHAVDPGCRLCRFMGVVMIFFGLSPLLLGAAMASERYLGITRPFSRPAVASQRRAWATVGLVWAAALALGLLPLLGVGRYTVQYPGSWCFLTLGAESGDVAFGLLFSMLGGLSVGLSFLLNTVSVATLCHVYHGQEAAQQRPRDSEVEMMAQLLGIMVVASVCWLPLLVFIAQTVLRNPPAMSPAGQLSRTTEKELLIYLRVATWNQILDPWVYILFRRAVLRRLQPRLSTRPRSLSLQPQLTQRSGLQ
Further: assay procedure not described here.

Sequence of Vasopressin V1a receptor (P37288 whole entry): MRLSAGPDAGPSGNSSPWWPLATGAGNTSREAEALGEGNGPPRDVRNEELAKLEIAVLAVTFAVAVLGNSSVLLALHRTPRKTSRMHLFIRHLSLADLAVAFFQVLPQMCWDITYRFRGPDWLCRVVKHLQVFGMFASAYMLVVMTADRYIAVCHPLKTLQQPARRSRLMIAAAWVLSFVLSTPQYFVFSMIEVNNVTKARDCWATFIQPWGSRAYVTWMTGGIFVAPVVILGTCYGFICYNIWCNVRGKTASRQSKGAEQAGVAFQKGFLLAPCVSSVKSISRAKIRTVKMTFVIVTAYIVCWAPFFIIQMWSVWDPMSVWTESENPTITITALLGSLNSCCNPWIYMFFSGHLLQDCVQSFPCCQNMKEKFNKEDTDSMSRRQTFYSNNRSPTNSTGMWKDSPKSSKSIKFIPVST
Sequence of 3',5'-cyclic-AMP phosphodiesterase 4D (Q08499 whole entry): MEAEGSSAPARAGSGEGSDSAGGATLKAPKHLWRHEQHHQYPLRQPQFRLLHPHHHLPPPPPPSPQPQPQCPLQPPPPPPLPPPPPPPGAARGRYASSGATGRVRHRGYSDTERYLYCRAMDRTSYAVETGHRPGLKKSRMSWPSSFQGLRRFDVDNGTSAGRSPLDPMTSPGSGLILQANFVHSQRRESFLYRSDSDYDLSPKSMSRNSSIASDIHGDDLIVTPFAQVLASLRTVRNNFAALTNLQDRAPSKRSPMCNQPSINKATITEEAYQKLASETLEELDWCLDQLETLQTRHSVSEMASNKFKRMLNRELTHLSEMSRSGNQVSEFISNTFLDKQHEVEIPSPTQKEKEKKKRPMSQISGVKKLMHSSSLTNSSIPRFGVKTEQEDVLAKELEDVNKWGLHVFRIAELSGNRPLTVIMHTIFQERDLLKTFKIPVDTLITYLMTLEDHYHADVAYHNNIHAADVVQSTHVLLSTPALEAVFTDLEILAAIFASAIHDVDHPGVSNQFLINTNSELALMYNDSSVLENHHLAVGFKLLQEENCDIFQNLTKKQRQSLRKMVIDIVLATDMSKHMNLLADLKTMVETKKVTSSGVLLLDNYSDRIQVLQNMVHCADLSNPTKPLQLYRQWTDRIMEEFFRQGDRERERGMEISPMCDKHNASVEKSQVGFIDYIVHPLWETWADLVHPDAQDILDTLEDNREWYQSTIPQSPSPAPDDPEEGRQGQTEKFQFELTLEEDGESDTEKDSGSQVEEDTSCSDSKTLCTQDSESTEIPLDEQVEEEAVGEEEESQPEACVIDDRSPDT
Sequence of Histamine H3 receptor (Q9Y5N1 whole entry): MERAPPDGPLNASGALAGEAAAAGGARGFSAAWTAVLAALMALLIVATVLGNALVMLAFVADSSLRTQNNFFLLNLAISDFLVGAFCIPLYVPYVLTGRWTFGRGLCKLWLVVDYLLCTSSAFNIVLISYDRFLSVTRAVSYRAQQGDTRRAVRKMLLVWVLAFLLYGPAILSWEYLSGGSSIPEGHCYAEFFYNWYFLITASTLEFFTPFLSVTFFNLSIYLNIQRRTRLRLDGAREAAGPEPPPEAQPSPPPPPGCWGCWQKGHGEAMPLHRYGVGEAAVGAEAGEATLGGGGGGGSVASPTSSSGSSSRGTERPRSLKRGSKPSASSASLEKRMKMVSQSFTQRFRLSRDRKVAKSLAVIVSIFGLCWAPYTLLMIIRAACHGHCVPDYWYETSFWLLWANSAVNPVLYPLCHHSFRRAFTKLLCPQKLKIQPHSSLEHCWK
Sequence of Motilin receptor (O43193 whole entry): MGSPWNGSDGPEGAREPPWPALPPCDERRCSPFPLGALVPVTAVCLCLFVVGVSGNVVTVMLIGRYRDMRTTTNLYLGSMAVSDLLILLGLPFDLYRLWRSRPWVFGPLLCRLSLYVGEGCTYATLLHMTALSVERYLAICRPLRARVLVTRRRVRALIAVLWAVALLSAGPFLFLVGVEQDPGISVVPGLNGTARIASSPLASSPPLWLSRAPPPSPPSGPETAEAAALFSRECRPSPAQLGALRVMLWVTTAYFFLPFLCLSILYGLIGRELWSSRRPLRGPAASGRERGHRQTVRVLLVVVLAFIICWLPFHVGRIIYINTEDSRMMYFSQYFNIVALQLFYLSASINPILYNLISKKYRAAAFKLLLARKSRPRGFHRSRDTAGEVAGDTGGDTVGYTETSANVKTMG
Sequence of Growth hormone secretagogue receptor type 1 (Q92847 whole entry): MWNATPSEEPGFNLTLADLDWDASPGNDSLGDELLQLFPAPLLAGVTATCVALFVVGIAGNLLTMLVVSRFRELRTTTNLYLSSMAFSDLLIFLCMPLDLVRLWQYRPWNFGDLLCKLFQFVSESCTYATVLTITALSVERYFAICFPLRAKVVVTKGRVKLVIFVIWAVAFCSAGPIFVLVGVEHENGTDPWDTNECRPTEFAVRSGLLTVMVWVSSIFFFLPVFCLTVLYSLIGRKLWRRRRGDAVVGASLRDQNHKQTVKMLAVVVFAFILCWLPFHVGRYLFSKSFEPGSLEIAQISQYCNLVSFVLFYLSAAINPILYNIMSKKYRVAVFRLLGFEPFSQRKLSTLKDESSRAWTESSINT

SMILES | AC50 (Vasopressin V1a receptor) | AC50 [1] | AC50 [2] | AC50 [3] | AC50 (Motilin receptor) | AC50 [4] | AC50 [5] | AC50 (Histamine H3 receptor) | AC50 [6] | AC50 (Thromboxane A2 receptor)
CC(C)(O/N=C(\C(=O)N[C@@H]1C(=O)N2C(C(=O)[O-])=C(C[n+]3ccccc3)CS[C@H]12)c1csc(N)n1)C(=O)O [CEFTAZIDIME] | > 300 µM | > 300 µM | > 300 µM | > 300 µM | > 300 µM | > 300 µM | > 30 µM | > 300 µM | > 300 µM | –
CCCNC(=O)NS(=O)(=O)c1ccc(Cl)cc1 [CHLORPROPAMIDE] | > 30 µM | > 30 µM | > 30 µM | > 10 µM | > 10 µM | > 10 µM | > 30 µM | > 10 µM | > 30 µM | > 30 µM
O=C(O)Cc1ccccc1Nc1c(Cl)cccc1Cl [DICLOFENAC] | > 30 µM | > 30 µM | > 30 µM | > 10 µM | > 10 µM | > 10 µM | > 30 µM | > 10 µM | > 30 µM | > 30 µM
O=C(O)Cc1ccccc1Oc1ccc(Cl)cc1Cl [FENCLOFENAC] | > 10 µM | > 30 µM | > 10 µM | > 10 µM | > 10 µM | > 10 µM | > 30 µM | > 10 µM | > 30 µM | > 30 µM
Cc1ccc(C)c(OCCCC(C)(C)C(=O)O)c1 [GEMFIBROZIL] | > 10 µM | > 30 µM | > 30 µM | > 10 µM | > 10 µM | > 10 µM | > 30 µM | > 10 µM | > 30 µM | > 30 µM
CC[C@H](C)C(=O)O[C@H]1C[C@@H](C)C=C2C=C[C@H](C)[C@H](CC[C@@H]3C[C@@H](O)CC(=O)O3)[C@H]21 [LOVASTATIN] | > 10 µM | > 30 µM | > 30 µM | > 10 µM | > 10 µM | > 10 µM | > 30 µM | > 10 µM | > 30 µM | 12 µM
CC(CN1c2ccccc2Sc2ccccc21)N(C)C (centres undefined) [PROMETHAZINE] | > 10 µM | > 30 µM | > 30 µM | > 10 µM | > 10 µM | > 10 µM | > 30 µM | > 10 µM | > 30 µM | > 30 µM
CC(C)[C@H](N)C(=O)OCCOCn1cnc2c(=O)[nH]c(N)nc21 [VALACYCLOVIR] | > 10 µM | > 30 µM | > 30 µM | > 10 µM | > 10 µM | > 10 µM | > 30 µM | > 10 µM | > 30 µM | > 30 µM
